Data set [1] concerns MDA-MB-157. As to the kind of experiment: ATP depletion cytotoxicity assay 48 hr. It is filed as cell-based, human. Particulars: MDA-MB-157; CXR1002 300 μM; 48 hours.
Description: (§2) Assay replicates were independent in time and up to 4 replicates were performed per cell line.
(§3) Cells were plated at the optimal plating density for that cell line in 96-well plates and allowed to attach overnight. The next day, the medium was removed and replaced with fresh medium containing the dose ranges of test items. […] There were 3 replicates for each test item concentration.
(§4) Following exposure to Test Items, the CellTitre-Glo Luminescent Cell Viability Assay to measure ATP content was performed according to the manufacturer's detailed instructions (Promega Corporation, Technical Bulletin No. 288, and Cell notes, Issue 10, 2004).
(§5) Cells were plated at the optimal plating density for that cell line in 96-well plates and allowed to attach overnight. The next day, cells were pre-treated with the inhibitors UO126 or LY294002 (see Tables 18 & 20) for 2 hrs, the medium was removed and replaced with fresh medium containing the appropriate dose of the test item. […] Cells were exposed to these compounds in Roswell Park Memorial Institute (RPMI) medium containing 10% Foetal Calf Serum (FCS) and 2 mM Glutamine at 37° C. and 5% CO2 for 48 hours. There were 3 replicates for each test item concentration.
(§6) Following exposure to Test Items, the CellTitre-Glo Luminescent Cell Viability Assay to measure ATP content will be performed according to the manufacturer's detailed instructions (Promega Corporation, Technical Bulletin No. 288, and Cell notes, Issue 10, 2004).
Data set [2] in a line: Dietary APFO (300 ppm) study in rats: plasma glucose, triglycerides, cholesterol, AST, ALT, APFO level. Format: in vivo, rat. Also noted: Triglycerides / Cholesterol / Glucose: unit not given here. Particulars: male, Sprague Dawley, rat, oral, 300 ppm in diet. On the procedure: (§1) Rats were sacrificed at 7, 14, 28 and 84 days. Blood from each study animal was taken by cardiac puncture into lithium/heparin-coated tubes for separation of plasma. Plasma was analysed for glucose, triglycerides, cholesterol, AST and ALT (unpublished data).

Data set [3] concerns Male Sprague Dawley rats. Described as above. It is filed as in vivo, rat. Also noted: Triglycerides / Cholesterol / Glucose: unit not given here. The conditions noted are these: 300 ppm in diet. On the procedure:
as §1

Data set [4] concerns hepatic peroxisome proliferation (PPARα). Briefly: Hepatic peroxisome proliferation (cyanide-insensitive palmitoyl CoA oxidation) in rats. The conditions noted are these: administration to rats. Format: in vivo, rat. From the text:
The earliest recognised characteristic of PPARα agonists was their ability to induce peroxisome proliferation in hepatocytes. The PPARα response is reflected in the increased transcription of mitochondrial and peroxisomal lipid metabolism, sterol, and bile acid biosynthesis and retinol metabolism genes (Andersen (2008)).
Peroxisome proliferation occurs as a result of the interaction of a chemical with PPARα. This leads to an increase in the synthesis of peroxisomal and lipid-metabolising enzymes and, consequently, an increase in size and number of peroxisomes. Cyanide-insensitive palmitoyl CoA oxidation is an accepted marker of peroxisome proliferation, and was used to highlight PPARα activation in vitro and in vivo.

For another data set, the system named is normal pancreas tissue. Briefly: Microarray ER stress response in normal pancreas (28 day study in rat). Format: in vivo. From the text:
Chemical toxicants such as tunicamycin and thapsigargin cause an accumulation of unfolded protein aggregates in the ER lumen (Schroder (2008)), (Harding (2002)), (Zhang (2008)). Whilst it is fair to say that many chemicals, drugs and toxicants induce ER stress, not all do. […] The phthalate DEHP and the PPARα agonist WY14,643 were also studied.

The test system of the next data set is HT-29. Briefly: SRB cytotoxicity assay 48 hr. It is filed as cell-based, human. Particulars: Homo sapiens, HT-29, 48 h, read-out: IC50 Values After 48 Hrs Exposure. On the technique in general: In SRB staining, fixed cells bind dye roughly in proportion to their protein.
The subject of the next data set is CaCo-2. As to the kind of experiment: SRB cytotoxicity assay 48 hr. Format: cell-based, human. The conditions noted are these: read-out: IC50 Values After 48 Hrs Exposure.
The next data set deals with MCF-7. As to the kind of experiment: SRB cytotoxicity assay 48 hr. It is filed as cell-based, human. The conditions noted are these: Homo sapiens, MCF7, 48 h, read-out: IC50 Values After 48 Hrs Exposure.
Data set [5] has as its system MDA-MB-157. As to the kind of experiment: SRB cytotoxicity assay 48 hr. Format: cell-based, human. Particulars: Homo sapiens, MDA-MB-157, 48 h, read-out: IC50 Values After 48 Hrs Exposure.
Description: (§7) The SRB assay was performed according to the method specified by the NIC/NIH. […] Assay replicates were independent in time and up to 4 replicates were performed per cell line.
A further data set relates to HepG2. As to the kind of experiment: SRB cytotoxicity assay 48 hr. It is filed as cell-based, human. The conditions noted are these: read-out: IC50 Values After 48 Hrs Exposure.
The test system of a further data set is Hep3B. Briefly: SRB cytotoxicity assay 48 hr. It is filed as cell-based, human. Particulars: Homo sapiens, 48 h, read-out: IC50 Values After 48 Hrs Exposure.
Another data set concerns PC3. Briefly: SRB cytotoxicity assay 48 hr. Format: cell-based, human. Particulars: Homo sapiens, PC-3, 48 h, read-out: IC50 Values After 48 Hrs Exposure.
A further data set relates to A549. As to the kind of experiment: SRB cytotoxicity assay 48 hr. The conditions noted are these: Homo sapiens, A549, 48 h, read-out: IC50 Values After 48 Hrs Exposure. It is filed as cell-based, human.
In another data set the test system is A2780. As to the kind of experiment: SRB cytotoxicity assay 48 hr. The conditions noted are these: Homo sapiens, A2780, 48 h, read-out: IC50 Values After 48 Hrs Exposure. Format: cell-based, human.
For the next data set, the system named is A375. Briefly: SRB cytotoxicity assay 48 hr. Particulars: Homo sapiens, A-375, 48 h, read-out: IC50 Values After 48 Hrs Exposure. Format: cell-based, human.
Data set [6] relates to panel of human tumour-derived cell lines. Briefly: BrdU incorporation (cell proliferation) in the SRB cell line panel. Format: cell-based. Particulars: 48 hrs. On the technique in general: Uptake of a labelled nucleoside into DNA is a usual measure of proliferation.
Data set [7] has the same test system. As to the kind of experiment: Hoechst 3342 staining (apoptotic cells) in the SRB cell line panel. Format: cell-based.
The target in a further data set is CYP2C9 (Homo sapiens, UniProt P11712). As to the kind of experiment: Cytochrome P450 isozyme inhibition. It is filed as in vitro ADME. The conditions noted are these: under the conditions used (unpublished data); read-out: IC50 towards CYP2C9. From the text:
There is no evidence that APFO is metabolised in mammals once dissociated to form perfluorooctanoate.

Data set [8] concerns Male Sprague Dawley rats. As to the kind of experiment: Dietary APFO (300 ppm) study in rats: plasma glucose, triglycerides, cholesterol, AST, ALT, APFO level. Format: in vivo, rat. Also noted: Glucose / Triglycerides / ALT / AST: unit not given here. The conditions noted are these: for ALT / AST / Glucose / Triglycerides: plasma, 300 ppm in diet.
The conditions of data set [9]: without reported adverse effects; cited from earlier work.
The subject of another data set is SW1353. As to the kind of experiment: ATP depletion cytotoxicity assay 48 hr. Format: cell-based, human. The conditions noted are these: DPQ 20 μM + CXR1002 0-1 mM; SW1353.
Another data set has as its system HPAFII. Briefly: ATP depletion cytotoxicity assay 48 hr. Format: cell-based, human. The conditions noted are these: DPQ 20 μM + CXR1002 0-1 mM; HPAFII.
Another data set deals with Capan2. As to the kind of experiment: ATP depletion cytotoxicity assay 48 hr. It is filed as cell-based, human. The conditions noted are these: DPQ 20 μM + CXR1002 0-1 mM; Capan2.
The test system of data set [10] is panel of tumour cell lines. Briefly: ATP cytotoxicity assay on the panel of tumour cell lines (CXR1002 alone; test items alone vs combined with CXR1002). Particulars: a number of the cell lines; single dose of CXR1002; 48 hours.
Description: as §7
Cells were plated at the optimal plating density for that cell line in 96-well plates and allowed to attach overnight. The next day, the medium was removed and replaced with fresh medium containing the dose ranges of test items. The cells were exposed to 5-FU, cisplatin, docetaxel, doxorubicin, geldanamycin, gemcitabine, rapamycin or roscovitine in Roswell Park Memorial Institute (RPMI) medium containing 10% Foetal Calf Serum (FCS) and 2 mM Glutamine at 37° C. and 5% CO2 for 48 hours. […] There were 3 replicates for each test item concentration.
as §4
The subject of another data set is H (chondrosarcoma). As to the kind of experiment: ATP depletion cytotoxicity assay 48 hr. Particulars: LY294002 12.5 μM + CXR1002 0-1 mM; sarcoma cell line H most notably.

The values below come from patent publication US20130029928A1 (priority 2010, published 2013).

SMILES strings stand for the structures. Structures can show the parent of a compound that is named as a salt. Where two headings read alike, the source gives them in different places. Some results are limits rather than exact numbers.

Chain of CYP2C9 (P11712 whole entry): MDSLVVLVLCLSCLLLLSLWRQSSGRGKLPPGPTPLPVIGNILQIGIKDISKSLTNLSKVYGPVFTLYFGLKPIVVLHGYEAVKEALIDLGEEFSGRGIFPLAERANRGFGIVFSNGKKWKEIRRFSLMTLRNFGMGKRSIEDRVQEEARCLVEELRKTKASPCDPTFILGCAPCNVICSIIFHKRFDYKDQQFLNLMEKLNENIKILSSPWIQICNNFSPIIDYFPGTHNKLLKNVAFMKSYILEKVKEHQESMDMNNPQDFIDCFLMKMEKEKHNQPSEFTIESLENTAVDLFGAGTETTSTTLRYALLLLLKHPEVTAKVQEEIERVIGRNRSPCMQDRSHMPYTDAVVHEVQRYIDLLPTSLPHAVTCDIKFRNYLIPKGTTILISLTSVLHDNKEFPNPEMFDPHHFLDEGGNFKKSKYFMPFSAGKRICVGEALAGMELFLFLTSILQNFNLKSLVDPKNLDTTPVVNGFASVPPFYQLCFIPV
Description for A2780: as §7
Description for A375: as §7
Description for A549: as §7
Description for CaCo-2: as §7
Description for Capan2: as §2, §3, §4, §5, §6
Description for H (chondrosarcoma): as §2, §3
Cells were plated at the optimal plating density for that cell line in 96-well plates and allowed to attach overnight. The next day, cells were pre-treated with the inhibitors UO126 or LY294002 (see Tables 18 & 20) for 2 hrs, the medium was removed and replaced with fresh medium containing the appropriate dose of the test item. […] Cells that were to be treated with DPQ received no pre-treatment. […] There were 3 replicates for each test item concentration.
Description for HPAFII: as §4
(§8) Cells were plated at the optimal plating density for that cell line in 96-well plates and allowed to attach overnight. […] Cells were exposed to these compounds in Roswell Park Memorial Institute (RPMI) medium containing 10% Foetal Calf Serum (FCS) and 2 mM Glutamine at 37° C. and 5% CO2 for 48 hours. There were 3 replicates for each test item concentration.
as §6
Description for HT-29: as §7
Description for Hep3B: as §7
Description for HepG2: as §7
Description for MCF-7: as §7
Description for PC3: as §7
Description for SW1353: as §4, §8, §6

Regarding `O=c1[nH]cc(F)c(=O)[nH]1` [5-FU, 5-Fluorouracil, reference compound], the “sensitivity to combination with CXR1002 vs test item alone” value (from here on “sensitivity … vs test item alone”) in the data set with MDA-MB-157 [1] is recorded as “apparent increase in sensitivity”.
For the compound `O=C(O)C(F)(F)C(F)(F)C(F)(F)C(F)(F)C(F)(F)C(F)(F)C(F)(F)F` [APFO, Ammonium Perfluorooctanoate], the concentration at 2 weeks in [2] (week 2) was determined as 157 ± 77.8 µM. The concentration at 4 weeks in data set [2] (week 4) was found to be 257 ± 38.9 µM. In addition, the Triglycerides with Male Sprague Dawley rats [3] (Week 1) is 0.41 ± 0.12; in the data set with Male Sprague Dawley rats [3] (Week 2) it was 0.62 ± 0.13; in the data set with Male Sprague Dawley rats [8] (Week 4) it was 0.57 ± 0.13; in the data set with Male Sprague Dawley rats [8] (Week 12) it was 0.63 ± 0.15. Further, the values for the Cholesterol with Male Sprague Dawley rats [3] (Week 2), in the data set with Male Sprague Dawley rats [3] (Week 4) and in the data set on Male Sprague Dawley rats [3] (Week 12) were 1.55 ± 0.27, 1.70 ± 0.29 and 1.75 ± 0.33, respectively. Besides, the Glucose turned out to be 15.34 ± 2.64 in the data set with Male Sprague Dawley rats [3] (Week 4), 13.12 ± 1.23 with Male Sprague Dawley rats [3] (Week 12), 14.31 ± 1.88 with Male Sprague Dawley rats [8] (Week 1) and 16.98 ± 3.21 in the data set with Male Sprague Dawley rats [8] (Week 2). The “hepatic peroxisome proliferation (induction of cyanide-insensitive palmitoyl CoA oxidation)” value in data set [4] is given as “led to hepatic peroxisome proliferation”. In the data set with normal pancreas tissue, the ER stress response result was “not seen”. The IC50 was 283 ± 5.8 µM in the data set on HT-29; ~740 µM in the data set on CaCo-2 (Homo sapiens, Caco-2, 48 h); 737 ± 245 µM in the data set with CaCo-2; 388 ± 227 µM in the data set on MCF-7; 512 ± 194 µM in the data set with MDA-MB-157 [5]; ~160 µM in the data set with HepG2 (Homo sapiens, HepG2, 48 h). For the same compound, the IC50 in the data set on HepG2 is 167 ± 97.1 µM; in the data set on Hep3B, 273 ± 80.2 µM; in the data set on PC3, 317 ± 59.2 µM; with A549 it was 223 ± 35.4 µM; in the data set on A2780 it was 260 ± 28.3 µM; in the data set on A375, 230 ± 10 µM. Further, the IC50 at CYP2C9 amounted to 0.78 µM. For the same compound, the BrdU incorporation entry in data set [6] (10 μM) is “No marked effects”; in [6] (30 μM) it was “variable”; in data set [6] (300 μM, all but one of the cell lines), “Significant suppression of BrdU incorporation”. For the same compound, the induction of apoptosis entry is “little effect” in data set [7] (10 μM), “variable responses” in data set [7] (30 μM) and “marked induction of apoptosis” in data set [7] (300 μM). Also, the adverse clinical observations result in the data set with Male Sprague Dawley rats [8] (after one year of continuous dietary dosing, 300 ppm) is “No adverse clinical observations”. Also, the ALT amounted to 101.90 ± 12.19 in the data set on Male Sprague Dawley rats [8] (Days 1 (so in the source)), 119.45 ± 19.27 in the data set with Male Sprague Dawley rats [8] (Days 2 (so in the source)), 98.99 ± 24.44 with Male Sprague Dawley rats [8] (Days 4 (so in the source)) and 91.89 ± 14.88 in the data set on Male Sprague Dawley rats [8] (Days 12 (so in the source)). The AST in the data set on Male Sprague Dawley rats [8] (Days 2 (so in the source)) turned out to be 120.00 ± 16.47; with Male Sprague Dawley rats [8] (Days 4 (so in the source)), 101.80 ± 19.17; in the data set on Male Sprague Dawley rats [8] (Days 12 (so in the source)), 92.63 ± 12.19. Besides, the “serum concentration in workers involved in manufacture” value in [9] was ≤ 275 µM.
For `CCCCC(CC)COC(=O)c1ccccc1C(=O)OCC(CC)CCCC` (centres unmarked) [DEHP], the ER stress response result in the data set on normal pancreas tissue is “No evidence of ER stress response was detected”.
For `O=C1NCCc2c(OCCCCN3CCCCC3)cccc21` [DPQ, reference compound], the “sensitivity in conjunction with CXR1002 vs CXR1002 alone” value in the data set with SW1353, in the data set with HPAFII and in the data set with Capan2 was “increased sensitivity” each time.
In the case of `COc1cccc2c1C(=O)c1c(O)c3c(c(O)c1C2=O)C[C@@](O)(C(=O)CO)C[C@@H]3O[C@H]1C[C@H](N)[C@H](O)[C@H](C)O1` [Doxorubicin, Doxorubicin hydrochloride], the “sensitivity … vs test item alone” value in data set [10] is given as “increase the sensitivity”.
As for `O=c1cc(N2CCOCC2)oc2c(-c3ccccc3)cccc12` [LY294002, reference compound], in the data set with H (chondrosarcoma), the “cytotoxic efficacy in conjunction with CXR1002 vs CXR1002 alone” value was “increased efficacy”.
Turning to `Cc1cccc(Nc2cc(Cl)nc(SCC(=O)O)n2)c1C` [WY14,643], in the data set on normal pancreas tissue, the ER stress response entry is given as “No evidence of ER stress response was detected”.
With `Nc1ccn([C@@H]2O[C@H](CO)[C@@H](O)C2(F)F)c(=O)n1` [gemcitabine, Gemcitabine], the “sensitivity … vs test item alone” value in data set [10] was “increase the sensitivity”.
Turning to `CC[C@H](CO)Nc1nc(NCc2ccccc2)c2ncn(C(C)C)c2n1` [roscovitine, Roscovitine], in data set [10], the “sensitivity … vs test item alone” value is listed as “increase the sensitivity”.

In general, IC50 refers to the concentration at which inhibition is half-maximal.
